Data reported in patent US7070807B2, “Branched histidine copolymers and methods for using same” (priority 1999, dated 2006).
Ends that are not written are not given here.

Tests used:
NIH-3T3 cells = assay: In vitro transfection with polymer:liposome:PCI-Luc complexes, luciferase activity; format: cell-based
Method: (§1) 4.5×10^4 cells (MDA-MB-435, NIH3T3 or CHO) were initially plated into 24 well dishes. After 48 hours, when the cells were 60 and 80% confluent, cells were transfected with a plasmid encoding luciferase (PCI-Luc). In transfection experiments, the copolymer was initially incubated with PCI-Luc for 30 minutes in OptiM. The amount of copolymer which varied from 0.25 nmole to 15 nmole was mixed with the plasmid or oligonucleotide. The concentration of DNA varied from 0.25 μg to 0.75 μg. No visible aggregation of the polymer with the plasmid DNA was apparent at these concentrations. Cationic liposomes were then added, gently mixed, and then allowed to stand for an additional 30 minutes. The polymer:liposome:DNA complex was then diluted with either OptiM or OptiM+10% serum. In experiments utilizing lysomotropic agents, either chloroquine (Sigma, St. Louis, Mo.) or bafilomycin Al (Sigma) was added to the media at concentrations of 10 ng/ml and 25 μM, respectively. Four hours after transfection, the complexes were removed and DMEM with 10% serum was added. Forty-eight hours later, luciferase levels were measured with the Turner 20/20 luminometer. Duplicates were done for each concentration and each experiment was performed twice.

CHO cells = assay: as above; format: cell-based, Chinese hamster
Method: as §1

[1] = Effect of adding transition metal on transfection efficiency of polymer:liposome:DNA complexes; format: cell-based; settings: Zn2+ 0 to 2.00 μg/ml added to H-K2b, H-K3b or H-K4b:liposome:DNA
Method: To determine the effect of adding transition metals on the transfection efficiency of a polymer:DNA complex, 0.25 μg H-K2b, 0.125 μg H-K3b, or 0.125 μg H-K4b were initially mixed with 0.75 μg DNA. After 30 minutes, cationic liposomes were added for 30 minutes. Zn^2+ was then added in an amount ranging from 0 to 2.00 μg/ml. As a control, various amounts of zinc were added to the liposome:DNA complex.

MDA-MB-435 cells [2] = assay: In vitro transfection with polymer:liposome:PCI-Luc complexes, luciferase activity; format: cell-based, human; settings: for transfection efficiency compared to H-K (19-mer): polymer:liposome:PCI-Luc; for transfection efficiency of the liposome: PCI-Luc complex, polymer vs no polymer (length comparison): 7.5 nmole polymer; for increase of transfection efficiency of branched polymer compared to the linear H-K polymer: with liposomes and 0.75 μg DNA, optimal dose; for transfection efficiency / uptake of liposomes (sequence order comparison): polymer mixed with DNA then liposomes, cell line not stated
Method: as §1

tumor = assay: Intratumoral injection of branched polymer carrier of PCI-Luc, gene expression; format: in vivo; settings: injected intratumorally
Description: FIG. 20. Comparison of the in vitro and in vivo transfection efficiencies of branched transport polymers having different lysine content. In contrast to in vitro experiments, local injection of a branched polymer with a lower lysine content enhanced transfection. A) In vitro comparison of HH-K4b and HHH-K4b as gene delivery carriers of PCI-Luc.
In place of lysine or other cationic amino acids (e.g., ornithine and arginine), other amino acids may be substituted. The preferred amino acids to be substituted for lysines are hydrophilic amino acids such as asparagine or serine.

[3] = system: MDA-MB-435 tumors in nude mice; assay: In vivo tumor growth after intratumoral injection of HH-K4b:oligonucleotide complexes (DNAzyme against VEGF receptor mRNA); settings: SEM in parentheses
Method: In vivo delivery of pharmaceutical agents. […] In this example, the receptor of VEGF mRNA with a DNA oligonucleotide that has enzymatic activity (also called DNAzyme) (36) was targeted. The VEGF receptor is essential for tumor angiogenesis and consequently tumor growth. After breast cancer cells (MDA-MB-435 cells) were injected into nude mice and the tumors grew to a visible size, the tumor was injected with the therapeutic polymer-DNA complex. The tumor was injected every 5 days for a total of 5 injections. There were 4 treatment groups: 1) untreated, 2) HH-K4B carrier alone, 3) HH-K4b+DNAzyme, and 4) HH-K4b+antisense oligonucleotides. To prepare the complex for injection, 45 μg of the HH-K4b polymer diluted in 150 μl of water was mixed with 24 μg of oligonucleotide, also diluted in 150 μl of water. After formation of the complex for 2 hours, 25 μl of the treatment complex was injected into each tumor. The therapeutic oligonucleotide sequence is 5′-TGCTCTCCA-GGCTAGCTACAACGA-CCTGCACCT-3′ (SEQ ID NO:18) whereas the control antisense oligonucleotide sequence is 5′-TGCTCTCCA-GGCTATGTACAACGA-CCTGCACCT-3′. (SEQ ID NO:19) The only difference between the therapeutic DNAzyme sequence and the antisense sequences is that the nucleotides responsible for cleaving the mRNA have been altered with the antisense DNA.

[4] = system: mice with 66.1 cell lung metastases; assay: Intravenous delivery of polymer:liposome:PCI-Luc, lung luciferase activity; format: in vivo; settings: complex with DOTAP/cholesterol liposomes, tumor laden mice, lungs six hours later
Method: FIG. 19. Branched transport polymer in combination with liposomes enhanced transfection efficiency when administered intravenously. Two weeks prior to injection of complex, 1.0×10^5 of 66.1 cells (a murine breast cancer cell line) were injected into mice to establish lung metastases. 6 μg of HH-K4b (volume-60 μl) was mixed with 30 μg of PCI-Luc (volume-60 μl). After 40 min, 18 μg of liposomes (DOTAP:cholesterol, volume-60 μl) was added and gently mixed for another 30 min. Total volume of the polymer: liposome: DNA solution is 180 μl. 0.28 μl of 1 M Hepes was mixed with H-K or HH-K4b solution, respectively, to neutralize to approximately pH-7.0. Liposome in complex with PCI-Luc complexes were prepared similarly. 150 μl of the complex solution was injected via the tail vein into the mice. Six hours later, the lungs were homogenized and the luciferase activity was measured in each group.
The liposomes were composed of DOTAP and cholesterol in a 1 to 1 molar ratio.

MDA-MB-435 cells [5] = assay: In vitro transfection with polymer:DNA complex in the absence of liposomes, luciferase activity; format: cell-based, human; settings: no liposomes
Method: as §1
Effect on transfection efficiency of a polymer:DNA complex: To determine the effect of branching on the transfection efficiency of a polymer:DNA complex, 7.5 nmol of H-K or 0.375 nmol of HH-K4b was mixed with PCI-Luc, and luciferase activity was measured as described above.
HH-K4b and HHH-K4b, respectively, have a histidine to lysine ratio of 1.5 and 2.4, respectively. […] In vitro transfection experiments were performed on MDA-MB-435 cells as described previously in 6.2 and 6.4.3. For the formation of the complex, 3.75 μg of polymer was mixed with 0.75 μg of PCI-Luc, and experiments were performed in a 24-well plates.

MDA-MB-435 cells [6] = assay: Uptake of polymer:fluorescein-labeled oligonucleotide complex, CytoFluor fluorescence; format: cell-based, human; settings: no liposomes; 0.75 μg 32-mer; 4 hour incubation, measured 24 hours later
Method: Effect on uptake of a polymer:oligonucleotide complex: In a second experiment, the same amount of HK or HHK4b was mixed with 0.75 μg of a 5′-end fluorescein-labeled randomly generated oligonucleotide(32-mer) for 30 minutes. This complex was added to the MDA-MB-435 cells for 4 hour incubation. Twenty-four hours later, the cells were then washed, and measured by CytoFluor fluorescence Measurement System. (Millipore, Bedford, Miss.).

endothelial cells (BAEC) = assay: In vitro transfection with polymer:liposome:DNA complexes, luciferase activity; format: cell-based, bovine
Method: To further investigate the extent to which histidine order could affect transfection efficiency, four polymer solutions containing a different linear histidine copolymer (H-K (19-mer) (SEQ ID NO:3), HHH-K (20-mer) (SEQ ID NO:6), HH-K (20-mer) (SEQ ID NO:5), or K-HK (21-mer) (SEQ ID NO:9)) were mixed in amounts ranging from 0.125 μl to 2.5 μl with 0.75 μg DNA. The concentration of each of the polymer solutions was […]. After 30 minutes, 1.5 μg of liposomes were added. After adding the delivery compositions to endothelial cells (BAEC) for 4 hours, the cells were washed, and luciferase activity measured 48 hours later (FIG. 14).

Compound: CO/C1=C\C(C)=C\[C@@H](C)[C@@H](O)[C@@H](C)C/C(C)=C/C=C/[C@H](OC)[C@@H]([C@@H](C)[C@@H](O)[C@H](C)[C@@]2(O)C[C@@H](O)[C@H](C)[C@@H](C(C)C)O2)OC1=O [bafilomycin A1]
- effect of lysosomotropic agent on transfection of the H-K: liposome: PCI-Luc triplex (NIH-3T3 cells): significantly increased
- effect of lysosomotropic agent on transfection of the H-K: liposome: PCI-Luc triplex (CHO cells; CHO cells): significantly increased
- increase of transfection efficiency of the H-K: liposome: PCI-Luc triplex by lysosomotropic agent (CHO cells; CHO cells, 10 ng/ml bafilomycin added with transfection agents): 5 fold
- effect of lysosomotropic agent on transfection efficiency of the liposome: PCI-Luc complex (CHO cells; absence of the histidine copolymer): did not enhance the transfection efficiency

Compound: CCN(CC)CCCC(C)Nc1ccnc2cc(Cl)ccc12 (stereo not shown) [chloroquine]
- effect of lysosomotropic agent on transfection of the H-K: liposome: PCI-Luc triplex (NIH-3T3 cells): significantly increased
- effect of lysosomotropic agent on transfection of the H-K: liposome: PCI-Luc triplex (CHO cells; CHO cells): significantly increased

Compound: [Zn+2] [zinc]
- effect of added zinc on transfection efficiency of polymer:liposome:DNA complexes [1]: can enhance transfection efficiency

Compound: H-R (19-mer): arginine-histidine copolymer, SEQ ID NO: 13 (RHRHRHRHRGRHRHRHRHR)
- transfection efficiency compared to H-K (19-mer) (MDA-MB-435 cells [2]): significantly better than H-K

Compound: KHKHKHKHKGKHKHKHKHK-NH2 [H-K (19-mer), [K-H-K-H-K-H-K-H-K-G-K-H-K-H-K-H-K-H-K]]
- morphologic evidence of cellular toxicity due to the polymer (MDA-MB-435 cells [2]; even at concentrations of 0.5 mM): No morphologic evidence of cellular toxicity

Compound: [K-H-H-H-K-H-H-H-K-H-H-H-K-H-H-H-K]4K3 (KHHHKHHHKHHHKHHHK; also: four copies on branched lysine core (K3)) [HHH-K4b, branched polymer on lysine core]
- efficiency as carrier of nucleic acids compared to DOTAP liposomes or HH-K4b carrier (tumor): much more efficient as a carrier of nucleic acids

Compound: [KHKHHKHHKHHKHHKHHKHK]4K3 [HH-K4b]
- tumor volume, 1st Injection ([3]; measured before 1st injection (baseline)): 9.5 (1.1)
- tumor volume, 2nd Injection ([3]; measured before 2nd injection, intratumoral every 5 days): 63.7 (10.7)
- tumor volume, 3rd Injection ([3]; measured before 3rd injection, intratumoral every 5 days): 134 (30)
- tumor volume, 4th Injection ([3]; measured before 4th injection, intratumoral every 5 days): 236 (55)
- tumor volume, 5th Injection ([3]; measured before 5th injection, intratumoral every 5 days): 429 (94)
- gene (luciferase) expression compared to liposomes only [4]: 7 fold
- in vitro transfection compared to HHH-K4b (MDA-MB-435 cells [5]; 3.75 μg polymer, 0.75 μg PCI-Luc): significantly more effective transfection agent in vitro
- transfection efficiency of polymer:DNA complex compared to linear H-K polymer (MDA-MB-435 cells [5]; 0.375 nmol HH-K4b vs 7.5 nmol H-K): better
- luciferase expression as sole carrier of DNA compared to HH-K3b, HH-K2b and H-K4b (MDA-MB-435 cells [5]; data not shown): better at enhancing luciferase expression
- uptake of oligonucleotides compared to linear HK polymer: oligonucleotides complex (MDA-MB-435 cells [6]): significantly enhanced uptake

Compound: [K-H-K-H-K-H-K-G-K-H-K-H-K] (KHKHKHKGKHKHK) [H-K (13 mer)]
- transfection efficiency of the liposome: PCI-Luc complex, polymer vs no polymer (length comparison) (MDA-MB-435 cells [2]): increased the transfection efficiency

Compound: [KHKHKHKHKGKHKHKHKHKGKHKHKHKHK] (KHKHKHKHKGKHKHKHKHKGKHKHKHKHK) [H-K (29 mer)]
- transfection efficiency of the liposome: PCI-Luc complex, polymer vs no polymer (length comparison) (MDA-MB-435 cells [2]): increased the transfection efficiency
- transfection efficiency compared to the 13 mer (MDA-MB-435 cells [2]; 7.5 nmole polymer with liposome and DNA): increased transfection efficiency more than the 13 mer

Compound: [K-H-K-H-K-H-K-H-K-G-K-H-K-H-K-H-K-H-K]2 K [H-K2b]
- increase of transfection efficiency of branched polymer compared to the linear H-K polymer (MDA-MB-435 cells [2]; absence of serum): approximately 10 fold
- transport of DNA into cells (luciferase) relative to PEI (MDA-MB-435 cells [2]; presence or absence of serum, H-K2b 0.25 μg + DNA 0.75 μg + liposomes 1.5 μg vs PEI 0.5 μg): more than 10 fold

Compound: [K-H-K-H-K-H-K-H-K-G-K-H-K-H-K-H-K-H-K]3 K2 [H-K3b]
- increase of transfection efficiency of branched polymer compared to the linear H-K polymer (MDA-MB-435 cells [2]; absence of serum): approximately 10 fold

Compound: [K-H-K-H-K-H-K-H-K-G-K-H-K-H-K-H-K-H-K]4 K3 [H-K4b]
- increase of transfection efficiency of branched polymer compared to the linear H-K polymer (MDA-MB-435 cells [2]; absence of serum): approximately 10 fold

Compound: [KKHHHKHHHKKHHHKHHHKK] (KKHHHKHHHKKHHHKHHHKK) [HHH-K]
- transfection of DNA in combination with liposomes, rank among four polymers (endothelial cells (BAEC); highest concentration of polymer used): most effective of the four
- transfection of DNA in combination with liposomes, rank among four polymers (endothelial cells (BAEC); lower concentrations of polymer): not as effective as the other three polymers tested

Compound: [K-K-K-K-K-K-K-K-K-G-K-K-K-K-K-K-K-K-K] (KKKKKKKKKGKKKKKKKKK) [poly-L-lysine, reference compound]
- effect of serum on transfection efficiency of polymer:liposome carrier (MDA-MB-435 cells [2]; presence vs absence of 10% serum): markedly decreased in the presence of serum

Compound: [K-S-K-S-K-S-K-S-K-G-K-S-K-S-K-S-K-S-K] (KSKSKSKSKGKSKSKSKSK) [S-K (19-mer)]
- transfection efficiency compared to no polymer (MDA-MB-435 cells [2]; absence of serum, with liposome: PCI-Luc): enhanced the transfection efficiency slightly more than when no polymer was added
- transfection efficiency compared to H-K (19-mer) (MDA-MB-435 cells [2]): significantly less effective

Compound: [YGRKKRRQRRRGKHKHKHKHKHKHKHKHK] (YGRKKRRQRRRGKHKHKHKHKHKHKHKHK) [Y-HK]
- transfection efficiency / uptake of liposomes (sequence order comparison) (MDA-MB-435 cells [2]; presence or absence of serum): accelerated useful transfection efficiency

Compound: [YGRKKRRQRRRHHKHHKHHKHHKHHK] (YGRKKRRQRRRHHKHHKHHKHHKHHK) [Y-HH]
- transfection efficiency / uptake of liposomes (sequence order comparison) (MDA-MB-435 cells [2]; presence or absence of serum): significantly enhanced the uptake of liposomes
